Experimental findings from patent publication US6875761B2 (Eisai Co., Ltd., priority 1997, dated 2005) are described below.

SMILES strings stand for the structures. Where a name gives a salt, the structure may show the parent alone.

In one assay the target is T1, serotonin 1A receptor (Rattus norvegicus, UniProt P19327).
T1 construct: To the receptor fraction of the hippocampus were added a test compound and 0.5 nM of [^3H]; 8-hydroxy-dipropylaminotetralin; from tissue; host or cells: rat hippocampus membrane fraction
T1 sequence (P19327 1-422): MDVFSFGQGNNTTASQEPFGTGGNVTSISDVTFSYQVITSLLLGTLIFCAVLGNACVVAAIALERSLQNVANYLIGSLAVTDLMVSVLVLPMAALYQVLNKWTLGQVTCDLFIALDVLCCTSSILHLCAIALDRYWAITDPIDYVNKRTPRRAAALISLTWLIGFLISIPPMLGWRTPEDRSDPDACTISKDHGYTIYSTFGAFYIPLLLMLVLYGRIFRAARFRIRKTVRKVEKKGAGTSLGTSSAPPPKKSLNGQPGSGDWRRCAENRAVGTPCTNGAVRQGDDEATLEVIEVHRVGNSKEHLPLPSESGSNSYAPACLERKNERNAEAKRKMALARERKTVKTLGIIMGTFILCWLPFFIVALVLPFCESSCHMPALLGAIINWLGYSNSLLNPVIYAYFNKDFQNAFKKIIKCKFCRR
Description: Binding test on [3H] 8-hydroxy-dipropylaminotetralin, hippocampus receptor fraction. Also noted: species or system SD rats. As to conditions: rat hippocampus receptor fraction, 0.5 nM [3H] 8-OH-DPAT, room temperature 30 min; read-out: 5HT1.

The next assay has as its target T2, serotonin 2 receptor (Rattus norvegicus, UniProt P14842).
T2 construct: To the receptor fraction of the cerebral cortex were added a test compound and 0.3 nM of [^3H] ketanserin; from tissue; host or cells: rat cerebral cortex membrane fraction
Briefly: Binding test on [3H] ketanserin, cerebral cortex receptor fraction. Conditions: 0.3 nM [3H] ketanserin, 37° C. 15 min, read-out: 5HT2. Also noted: species or system SD rats.

T2 sequence (P14842 whole entry): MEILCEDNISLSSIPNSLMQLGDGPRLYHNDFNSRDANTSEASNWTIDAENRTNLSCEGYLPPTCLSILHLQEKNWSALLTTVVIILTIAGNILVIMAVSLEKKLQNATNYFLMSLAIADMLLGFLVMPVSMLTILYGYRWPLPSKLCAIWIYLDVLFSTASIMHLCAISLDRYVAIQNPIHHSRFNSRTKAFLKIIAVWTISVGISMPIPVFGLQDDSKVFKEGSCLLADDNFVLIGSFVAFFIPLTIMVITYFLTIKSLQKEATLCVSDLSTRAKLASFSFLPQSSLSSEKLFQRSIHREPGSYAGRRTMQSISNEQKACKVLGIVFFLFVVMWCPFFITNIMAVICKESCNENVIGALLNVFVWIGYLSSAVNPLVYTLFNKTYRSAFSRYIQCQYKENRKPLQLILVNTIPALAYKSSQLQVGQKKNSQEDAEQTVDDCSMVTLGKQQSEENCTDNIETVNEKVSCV

For `CCN1CCN(c2nc(-c3ccc(N4CCC(CO)CC4)nc3)cc3ccccc23)CC1` [Example 154, 1-(4-ethylpiperazin-1-yl)-3-[2-(4-hydroxymethylpiperidin-1-yl)pyridin-5-yl]isoquinoline trihydrochloride], the Ki at serotonin 1A receptor was found to be 1.6 nM; on serotonin 2 receptor, 8.8 nM.
The corresponding values for `CCN1CCN(c2nc(/C=C/c3ccccc3OCCO)cc3ccoc23)CC1` [Example 308, oxalate] are 6.49 nM and 19.5 nM.
For `CCN1CCN(c2nc(-c3ccc([C@@H]4C[C@H](O)CCO4)cc3)cc3ccsc23)CC1` (relative stereo) [Example 454, 7-(4-Ethylpiperazin-1-yl)-5-[4-(cis-4-hydroxytetrahydropyran-2-yl)phenyl]thieno[2,3-c]pyridine dihydrochloride] the same measures were 67.4 nM and 26.5 nM.
For `CCN1CCN(c2nc(-c3ccc(OCC4OCCO4)cc3)cc3sccc23)CC1` [Example 460, 4-(4-ethylpiperazin-1-yl)-6-[4-(1,3-dioxolan-2-yl)methoxyphenyl]thieno[3,2-c]pyridine oxalate] the same measures were 5.32 nM and 175 nM.
For the compound `CCN1CCN(c2nc(-c3ccc(OCC(C)(C)O)cc3)cc3ccccc23)CC1` [Example 309, 1-(1-ethylpiperazin-4-yl)-3-[4-(2-hydroxy-2-methylpropoxy)phenyl]isoquinoline dihydrochloride], the Ki worked out at 91 nM on serotonin 1A receptor and 0.01 nM at serotonin 2 receptor.
Take `CCN1CCN(c2nc(-c3ccc(CO)cc3)cc3ccccc23)CC1` [Example 17, 1-(4-ethylpiperazin-1-yl)-3-(4-hydroxymethylphenyl)isoquinoline hydrochloride]: the Ki at serotonin 1A receptor was 11.1 nM; on serotonin 2 receptor it was 26.8 nM.
In the case of `CCN1CCN(c2nc(-c3cc(OC)cc(OC)c3)cc3ccccc23)CC1` [Example 15, 3-(3,5-dimethoxyphenyl)-1-(4-ethylpiperazin-1-yl)isoquinoline Dihydrochloride], the Ki was determined as 55.5 nM at serotonin 1A receptor and 19.5 nM on serotonin 2 receptor.
For `CCN1CCN(c2nc(/C=C/c3ccccn3)cc3ccccc23)CC1` [Example 209, 1-(1-Ethylpiperazin-4-Yl)-3-[Trans-2-(2-Pyridyl)Ethenyl]Isoquinoline Trihydrochloride] the same measures were 3.28 nM and 2.35 nM.
Regarding `CCN1CCN(c2nc(-c3ccc(NCCO)cc3)cc3ccccc23)CC1` [Example 67, 3-[4-(2-Hydroxyethyl)Aminophenyl]-1-(4-Ethylpiperazin-1-Yl)Isoquinoline Hydrochloride], the figures for the Ki at serotonin 1A receptor and at serotonin 2 receptor were 27.3 nM and 6.6 nM, respectively.
As for `CCN1CCN(c2nc(-c3ccc(C(=O)NC4CCCCC4)cc3)cc3ccsc23)CC1` [Example 273, dihydrochloride], the Ki on serotonin 1A receptor is 51.4 nM; at serotonin 2 receptor it was 9.11 nM.
For `CCN1CCN(c2nc(-c3ccc(C(=O)NC4CCCC4)cc3)cc3ccsc23)CC1` [Example 453, 7-(4-ethylpiperazin-1-yl)-5-[4-(N-cyclopentylcarbamoyl)phenyl]thieno[2,3-c]pyridine dihydrochloride] the same measures were 22.2 nM and 45.4 nM.
The corresponding values for `CCC(O)c1ccc(-c2cc3sccc3c(N3CCN(CC)CC3)n2)cc1` (centres unmarked) [Example 282, 4-(4-ethylpiperazin-1-yl)-6-[4-(1-hydroxypropyl)phenyl]thieno-[3,2-c]pyridine oxalate] are 10.8 nM and 6.46 nM.
The corresponding values for `CCN1CCN(c2nc(-c3ccc(S(N)(=O)=O)cc3)cc3ccccc23)CC1` [Example 74, 3-(4-Sulfonamidephenyl)-1-(4-Ethylpiperazin-1-Yl)Isoquinoline Hydrochloride] are 4.6 nM and 7.7 nM.
`CCN1CCN(c2nc(-c3ccc(CCC(C)(C)O)cc3)cc3sccc23)CC1` [Example 291, 4-[4-ethylpiperazin-1-yl)-6-[4-(3-hydroxy-3-methylbutyl)phenyl]thieno[3,2-c]pyridine dihydrochloride]: the figures for the Ki on serotonin 1A receptor and on serotonin 2 receptor were 43.3 nM and 1.44 nM, respectively.
For `CCN1CCN(c2nc(-c3ccc(C4(O)CCOCC4)cc3)cc3ccccc23)CC1` [Example 410, 1-(4-ethylpiperazin-1-yl)-3-[4-(4-hydroxytetrahydropyran-4-yl)phenyl]isoquinoline] the same measures were 21.1 nM and 2.1 nM.
The corresponding values for `CN1CCN(c2nc(-c3ccc(OCCO)cc3)cc3ccccc23)CC1` [Example 3, 1-(1-methylpiperazin-4-yl)-3-[4-(2-hydroxyethoxy)phenyl]isoquinoline] are 65 nM and 3.8 nM.
The corresponding values for `CCN1CCN(c2nc(-c3ccc(CCCO)c(OC)c3)cc3ccsc23)CC1` [Example 433, 7-(4-ethylpiperazin-1-yl)-5-[4-(3-hydroxypropyl)-3-methoxyphenyl]thieno[2,3-c]-pyridine hydrochloride] are 20.6 nM and 3.53 nM.
Turning to `CCN1CCN(c2nc(-c3ccc(C(F)CCO)cc3)cc3cccnc23)CC1` (centres unmarked) [Example 249, 8-(1-ethylpiperazin-4-yl)-6-[4-(3-hydroxy-1-fluoropropyl)phenyl]-1,7-naphthyridine Dihydrochloride], the Ki on serotonin 1A receptor came out at 38 nM; on serotonin 2 receptor, 28.1 nM.
The corresponding values for `CCN1CCN(c2nc(C#CC(O)c3ccccc3)cc3ccccc23)CC1` (centres unmarked) [Example 310, 1-(1-ethylpiperazin-4-yl)-3-(3-phenyl-3-hydroxy-1-propynyl)isoquinoline hydrochloride] are 4.4 nM and 10.2 nM.
The corresponding values for `CCN1CCN(c2nc(-c3ccc(OCCO)cc3)cc3cccc(F)c23)CC1` [Example 234, 1-(1-ethylpiperazin-4-yl)-8-fluoro-3-[4-(2-hydroxyethoxy)phenyl]isoquinoline dihydrochloride] are 129 nM and 1.11 nM.
For `CCN1CCN(c2nc(-c3ccc(C(F)(F)F)cc3)cc3ccccc23)CC1` [Example 4, 1-(4-ethylpiperazin-1-yl)-3-(4-trifluoromethylphenyl)isoquinoline Dihydrochloride] the same measures were 71 nM and 74.9 nM.
For `CCN1CCN(c2nc(-c3ccc(C(O)CC(C)(C)O)cc3)cc3ccccc23)CC1` (centres unmarked) [Example 25, 3-[4-(1,3-dihydroxy-3-methylbutyl)phenyl]-1-(4-ethylpiperazin-1-yl)isoquinoline], the values for the Ki at serotonin 1A receptor and at serotonin 2 receptor were 21.5 nM and 3.4 nM, respectively.
Turning to `CCN1CCN(c2nc(-c3cccc(OC)c3)cc3ccccc23)CC1` [Example 9, 1-(4-ethylpiperazin-1-yl)-3-(3-methoxyphenyl)isoquinone Dihydrochloride], the Ki was 57 nM on serotonin 1A receptor and 24.5 nM at serotonin 2 receptor.
The corresponding values for `CCN1CCN(c2nc(-c3ccc(OC)cc3)cc3ccsc23)CC1` [Example 459, 7-(4-ethylpiperazin-1-yl)-5-(4-methoxyphenyl)thieno[2,3-c]pyridine dihydrochloride] are 108 nM and 60.1 nM.
For `CCNC(=O)c1ccc(-c2cc3ccccc3c(N3CCN(CC)CC3)n2)cc1` [Example 364, 1-(4-ethylpiperazin-1-yl)-3-[4-(N-ethylcarbamoyl)phenyl]isoquinoline dihydrochloride] the same measures were 21.7 nM and 3.9 nM.
As to `CCN1CCN(c2nc(-c3cc(F)c(OCCF)c(F)c3)cc3ccccc23)CC1` [Example 371, 1-(4-ethylpiperazin-1-yl)-3-[3,5-difluoro-4-(2-fluoroethoxy)phenyl]isoquinoline dihydrochloride], the values for the Ki at serotonin 1A receptor and at serotonin 2 receptor were 41 nM and 4.3 nM, respectively.
For `CCN1CCN(c2nc(-c3ccc(OCCO)c(C(C)C)c3)cc3ccccc23)CC1` [Example 41, 3-[3-isopropyl-4-(2-hydroxyethoxy)phenyl]-1-(4-ethylpiperazin-1-yl)isoquinoline hydrochloride] the same measures were 40.1 nM and 45.6 nM.
For `CCN1CCN(c2nc(Sc3ccccn3)cc3ccccc23)CC1` [Example 378, 1-(4-Ethylpiperazin-1-yl)-3-(2-Pyridylthio)Isoquinoline Oxalate] the same measures were 42.7 nM and 95.2 nM.
For `CN1CCN(c2nc(-c3ccc(OCC(C)(C)O)cc3)cc3sccc23)CC1` [Example 288, 6-[4-(2-methyl-2-hydroxypropoxy)phenyl]-4-(4-methylpiperazin-1-yl)thieno[3,2-c]pyridine hydrochloride] the same measures were 80.9 nM and 0.14 nM.
Regarding `CCN1CCN(c2nc(-c3ccc(N4CCSCC4)nc3)cc3ccccc23)CC1` [Example 150, 1-(4-ethylpiperazin-1-yl)-3-[2-(thiomorpholin-4-yl)pyridin-5-yl]isoquinoline trihydrochloride], the Ki amounted to 10.7 nM at serotonin 1A receptor and 0.8 nM on serotonin 2 receptor.
For `CCC#Cc1ccc(-c2cc3ccccc3c(N3CCN(CC)CC3)n2)cn1` [Example 146, 1-(1-ethylpiperazin-4-yl)-3-[2-(1-butyn-1-yl)pyridin-5-yl]isoquinoline] the same measures were 170 nM and 2.9 nM.
